Here are results for 13 compounds from patent US20210292330A1, “PYRROLIDINE-FUSED HETEROCYCLES” (Erasca, Inc., priority 2020, published 2021).

The target of the experiment is T1, KRAS 4B G12C protein (Homo sapiens, UniProt P01116, G12C).
T1 construct: This protein contained 188 amino acids in total, including an N-terminal 6-Histidine tag; made in house; host or cells: E. coli BL21
In words: In vitro covalent adduct formation (CAF) assay by LC-MS. The experiment is classed as binding. As to conditions: compound 10 μM, protein 5 μM, 22° C., percentage of protein bound by the compound. The protocol: In vitro covalent adduct formation assay: Covalent adduct formation (CAF) reactions between Cys12 of the KRAS 4B G12C protein and some of the compounds of Table 1 were measured in vitro using liquid chromatography-mass spectrometry (LC-MS).
Recombinant Human KRAS 4B protein containing the G12C mutation was used in compound screening experiments. This protein contained 188 amino acids in total, including an N-terminal 6-Histidine tag, followed by a Tobacco Etch Virus (TEV) tag, followed by residues 1-169 of the native KRAS 4B sequence. The exact mass of the protein was 21,310 Da as determined by mass spectrometry. The full amino acid sequence is shown below:
The recombinant protein was expressed in E. coli BL21 cells and purified using affinity chromatography via a Ni-NTA column. […] Pure KRAS 4B G12C protein was diluted to a concentration of 5 μM in Tris Buffered Saline, pH 7.4. The compounds were dissolved in DMSO and added to the diluted protein to make a 10 μM concentration. The total DMSO concentration in the reaction was 4%. The reaction was mixed by pipetting and incubated at 22° C. for one hour. Aliquots of the reaction were taken over time and diluted 2:1 in 0.1% formic acid. The intact mass of the protein samples was measured by LC-MS using a QExactive+ mass spectrometer (Thermo Scientific). An amount of 500 ng total protein was injected onto a C8 reverse phase column, eluted with a seven-minute gradient of 30%-90% acetonitrile/0.1% formic acid, and analyzed for intact mass by the mass spectrometer. Adducts identified were confirmed to be within 1 Dalton of the expected mass, and the relative ratios of free:adduct protein were used to quantify the percentage of protein bound by the compound. CAF reactions were run in duplicate, with a typical variability of ±5%.

For the compound `C#CC[C@H]1CN(c2nc(OC[C@@H]3CCCN3C)nc3c2CN(C2CCc4ccccc42)C3)CCN1C(=O)C=C` (stereo partly drawn) [1-144, 1-((2S)-4-(6-(2,3-dihydro-1H-inden-1-yl)-2-(((S)-1-methylpyrrolidin-2-yl)methoxy)-6,7-dihydro-5H-pyrrolo[3,4-d]pyrimidin-4-yl)-2-(prop-2-yn-1-yl)piperazin-1-yl)prop-2-en-1-one], the “CAF (10 minutes/60 minutes) at 10 micromolar: 10 minutes” value (“CAF … at 10 micromolar: 10 minutes” for short) was determined as 15% and the “CAF (10 minutes/60 minutes) at 10 micromolar: 60 minutes” value (“CAF … at 10 micromolar: 60 minutes” for short) was determined as 35%.
The like results for `C=CC(=O)N1CCN(c2nc(O[C@@H]3CN(C)C[C@H]3OC)nc3c2CN(C2CCc4ccccc42)C3)C2COCC21` (some centres unmarked) [1-227] were, in that order, 0%/ 0% and 0%/ 0%.
The like results for `C=CC(=O)N1C[C@H](C)N(c2nc(OC[C@@H]3CCCN3C)nc3c2CN(Cc2cc(O)ccc2F)C3)C[C@H]1C` [1-32] were, in that order, 7% and 41%.
As to `C=CC(=O)N1CCN(c2nc(OC[C@@H]3CCCN3C)nc3c2CN(C2CCc4ccccc42)C3)C2CS(=O)(=O)CC21` (some centres unmarked) [1-210], the “CAF … at 10 micromolar: 10 minutes” value was 0%/ 0% and the “CAF … at 10 micromolar: 60 minutes” value turned out to be 0%/ 0%.
Take `C=CC(=O)N1CCN(c2nc(OC[C@@H]3CCCN3CC(C)C)nc3c2CN(C2CCc4ccccc42)C3)C[C@@H]1CC#N` (some centres unmarked) [1-192]: the “CAF … at 10 micromolar: 10 minutes” value was 53% and the “CAF … at 10 micromolar: 60 minutes” value was 65%.
Regarding `C#CC1CN(c2nc(OC[C@@H]3CCCN3C)nc3c2CN(C2CCc4ccccc42)C3)CCN1C(=O)C=C` (some centres unmarked) [1-121], the “CAF … at 10 micromolar: 10 minutes” value is reported as 0% and the “CAF … at 10 micromolar: 60 minutes” value was 4%.
As to `C=C(F)C(=O)N1CCN(c2nc(OC[C@@H]3CCCN3C)nc3c2CN(Cc2ccccc2C(F)(F)F)C3)C[C@@H]1CC#N` [1-221], the “CAF … at 10 micromolar: 10 minutes” value is listed as 62% and the “CAF … at 10 micromolar: 60 minutes” value is given as 92%.
`C=CC(=O)N1CCN(c2nc(OCCOC)nc3c2CN(C2CCc4ccccc42)C3)C[C@@H]1CC#N` (some centres unmarked) [1-129]: the “CAF … at 10 micromolar: 10 minutes” value is reported as 26% and the “CAF … at 10 micromolar: 60 minutes” value was determined as 64%.
As to `C=CC(=O)N1CCN(c2nc(OC[C@@H]3CCCN3C)nc3c2CN(Cc2c(C)cccc2O)C3)C[C@@H]1CC#N` [1-55], the “CAF … at 10 micromolar: 10 minutes” value was determined as 78% and the “CAF … at 10 micromolar: 60 minutes” value was determined as 91%.
The like results for `C=CC(=O)N1CCN(c2nc(OC[C@@H]3CCCN3C)nc3c2CN(Cc2cc(O)cc4ccccc24)C3)C[C@@H]1CC#N` [1-180] were, in that order, 94% and 96%.
With `C=C(F)C(=O)N1CCN(c2nc(OC[C@@H]3CCCN3C)nc3c2CN(C2CCCc4cccc(Cl)c42)C3)C[C@@H]1CC#N` (stereo partly drawn) [1-126, 2-[(2S)-4-[6-(8-chloro-1,2,3,4-tetrahydronaphthalen-1-yl)-2-{[(2S)-1-methylpyrrolidin-2-yl]methoxy}-5H,7H-pyrrolo[3,4-d]pyrimidin-4-yl]-1-(2-fluoroprop-2-enoyl)piperazin-2-yl]acetonitrile], the “CAF … at 10 micromolar: 10 minutes” value amounted to 53% and the “CAF … at 10 micromolar: 60 minutes” value was found to be 88%.
The like results for `C=CC(=O)N1CCN(c2nc(-c3nnc(C)o3)nc3c2CN(C2CCc4ccccc42)C3)C[C@@H]1CC#N` (stereo partly drawn) [1-197, 2-((2S)-1-acryloyl-4-(6-(2,3-dihydro-1H-inden-1-yl)-2-(5-methyl-1,3,4-oxadiazol-2-yl)-6,7-dihydro-5H-pyrrolo[3,4-d]pyrimidin-4-yl)piperazin-2-yl)acetonitrile] were, in that order, 24% and 52%.
As for `C=C(F)C(=O)N1CCN(c2nc(OC[C@@H]3CCCN3C)nc3c2CN(C2CCc4cccc(Cl)c42)C3)C[C@@H]1CC#N` (some centres unmarked) [1-127], the “CAF … at 10 micromolar: 10 minutes” value came out at 64% and the “CAF … at 10 micromolar: 60 minutes” value turned out to be 95%.
